Assay: HAp (hydroxyapatite) binding study
Conditions: 20 mg synthetic HAp in 1 mL saline, 10 min incubation at ambient temperature
Procedure: To evaluate HAp binding, 20 mg of synthetic HAp was allowed to incubate in 1 mL of isotonic saline for 24 h. Labeled complex in a volume of 50 µL was then added, subjected to vortex for 10 s and incubated at ambient temperature for 10 min. After incubation, samples had been centrifuged, and the supernatant was removed. Hap fraction was washed twice with 0.5 mL saline, and all the washes were collected. Radioactivity was then checked in combined liquids and HAp fraction using gamma counter.

Q: With “[^68Ga]-trans-1,2-cyclohexyldinitrilo tetramethylene phosphonic acid [[^68Ga]-CDTMP]” as the substance, how does the “binding to HAp” value read?
A: The value was 89 ± 3%.

Source: publication PMC5465288, “[^68Ga]/[^188Re] Complexed [CDTMP] Trans-1,2-Cyclohexyldinitrilotetraphosphonic Acid As a Theranostic Agent for Skeletal Metastases” (Frontiers in Medicine, 2017)
